Test results: PubChem BioAssay AID330 (DTP/NCI, 2004)
Inconclusive results and toxic doses are left out. How the source made its calls: active means survival T/C of 150% or more; inactive means T/C below 125% in these data.

System: P388 leukemia ip, CD2F1 mice, survival T/C
Test: NCI In Vivo Anticancer Drug Screen. Data for tumor model P388 Leukemia (intraperitoneal) in CD2F1 (CDF1) mice
Settings: endpoint: median survival time, higher = longer survival
In short: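 Mice carrying the transplanted tumor received test compound or vehicle. Survival was recorded in each group, and the value is the treated-group measurement divided by that of the vehicle-treated control group.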

[1] = dose: 50.0 mg/kg/injection, schedule: Q01DX005 (ip), vehicle: saline with Tween-80
[2] = dose: 100.0 mg/kg/injection, schedule: Q01DX005 (ip), vehicle: saline with Tween-80
[3] = dose: 50.0 mg/kg/injection, schedule: Q01DX009 (ip), vehicle: saline with Tween-80
[4] = dose: 100.0 mg/kg/injection, schedule: Q01DX009 (ip), vehicle: saline with Tween-80
[5] = dose: 200.0 mg/kg/injection, schedule: Q01DX009 (ip), vehicle: saline with Tween-80
[6] = dose: 12.5 mg/kg/injection, schedule: Q01DX009 (ip), vehicle: Klucel (hydroxypropylcellulose) (HPC)
[7] = dose: 25.0 mg/kg/injection, schedule: Q01DX009 (ip), vehicle: Klucel (hydroxypropylcellulose) (HPC)
[8] = dose: 50.0 mg/kg/injection, schedule: Q01DX009 (ip), vehicle: Klucel (hydroxypropylcellulose) (HPC)
[9] = dose: 100.0 mg/kg/injection, schedule: Q01DX009 (ip), vehicle: Klucel (hydroxypropylcellulose) (HPC)

Measured: T/C

CN(C)C1=C(Cl)C(=O)c2[nH]cnc2C1=O
inactive: dose: 6.25 mg/kg/injection, schedule: Q01DX005 (ip), vehicle: Klucel (hydroxypropylcellulose) (HPC) 113 % of control | dose: 12.5 mg/kg/injection, schedule: Q01DX005 (ip), vehicle: Klucel (hydroxypropylcellulose) (HPC) 110 % of control | dose: 25.0 mg/kg/injection, schedule: Q01DX005 (ip), vehicle: Klucel (hydroxypropylcellulose) (HPC) 98 % of control

COC(=O)c1c(OC)c(Cl)c2cc3c(c(O)c2c1C)C(=O)[C@@]1(O)C(=O)C=C(OC)[C@H](O)[C@@]1(O)C3=O
inactive: dose: 11.0 mg/kg/injection, schedule: Q01DX005 (ip), vehicle: saline with Tween-80 103 % of control | dose: 22.0 mg/kg/injection, schedule: Q01DX005 (ip), vehicle: saline with Tween-80 105 % of control | dose: 44.0 mg/kg/injection, schedule: Q01DX005 (ip), vehicle: saline with Tween-80 89 % of control | dose: 88.0 mg/kg/injection, schedule: Q01DX005 (ip), vehicle: saline with Tween-80 94 % of control | dose: 176.0 mg/kg/injection, schedule: Q01DX005 (ip), vehicle: saline with Tween-80 99 % of control

COC(=O)CC1(C(=O)OC)C(Sc2ccccc2)=C(c2ccccc2)N2CCCC21 (centres undefined)
inactive: dose: 21.88 mg/kg/injection, schedule: Q01DX009 (ip), vehicle: Klucel (hydroxypropylcellulose) (HPC) 101 % of control | dose: 43.75 mg/kg/injection, schedule: Q01DX009 (ip), vehicle: Klucel (hydroxypropylcellulose) (HPC) 96 % of control | dose: 87.5 mg/kg/injection, schedule: Q01DX009 (ip), vehicle: Klucel (hydroxypropylcellulose) (HPC) 96 % of control | dose: 175.0 mg/kg/injection, schedule: Q01DX009 (ip), vehicle: Klucel (hydroxypropylcellulose) (HPC) 92 % of control

Cc1ccc(S(=O)(=O)N/N=C/c2c(Cl)n(-c3ccccc3)c3ccccc23)cc1
inactive: dose: 100.0 mg/kg/injection, schedule: Q01DX001 (ip), vehicle: saline with Tween-80 100 % of control | dose: 200.0 mg/kg/injection, schedule: Q01DX001 (ip), vehicle: saline with Tween-80 99 % of control | dose: 400.0 mg/kg/injection, schedule: Q01DX001 (ip), vehicle: saline with Tween-80 97 % of control

O=C1NC(=O)C(Cc2ccccc2)(Cc2ccccc2)S1
inactive: dose: 60.0 mg/kg/injection, schedule: Q01DX005 (ip), vehicle: saline with Tween-80 100 % of control | dose: 120.0 mg/kg/injection, schedule: Q01DX005 (ip), vehicle: saline with Tween-80 103 % of control | dose: 240.0 mg/kg/injection, schedule: Q01DX005 (ip), vehicle: saline with Tween-80 96 % of control

CC(c1ccccc1)C1CCN(C)CC1 (centres undefined)
inactive: dose: 12.5 mg/kg/injection, schedule: Q04DX002 (ip), vehicle: saline 99 % of control | dose: 25.0 mg/kg/injection, schedule: Q04DX002 (ip), vehicle: saline 100 % of control

O=C1CN(CCN2CCCCC2)CC(=O)N2CCCCN12
inactive: [1] 102 % of control | [2] 107 % of control

CCCN(CCC)C(=O)O[Si](C)(C)C(C)(C)C
inactive: [3] 105 % of control | [4] 97 % of control | [5] 105 % of control

CC1=CCC[C@@H]2C1(C)CCC(C)[C@@]2(C)CC1=CC(=O)C=CC1=O (some centres undefined)
inactive: dose: 0.62 mg/kg/injection, schedule: Q01DX005 (ip), vehicle: saline with Tween-80 99 % of control | dose: 1.25 mg/kg/injection, schedule: Q01DX005 (ip), vehicle: saline with Tween-80 103 % of control | dose: 2.5 mg/kg/injection, schedule: Q01DX005 (ip), vehicle: saline with Tween-80 99 % of control | dose: 5.0 mg/kg/injection, schedule: Q01DX005 (ip), vehicle: saline with Tween-80 98 % of control | dose: 10.0 mg/kg/injection, schedule: Q01DX005 (ip), vehicle: saline with Tween-80 103 % of control

CC(C)(C)OP(=S)(OC(C)(C)C)OC(C)(C)C
inactive: dose: 100.0 mg/kg/injection, schedule: Q04DX002 (ip), vehicle: saline with Tween-80 96 % of control | dose: 200.0 mg/kg/injection, schedule: Q04DX002 (ip), vehicle: saline with Tween-80 108 % of control | dose: 400.0 mg/kg/injection, schedule: Q04DX002 (ip), vehicle: saline with Tween-80 106 % of control

Oc1ccc(/C=N/Nc2nnc(N/N=C/c3ccc(O)cc3O)c3ccccc23)c(O)c1
inactive: dose: 3.12 mg/kg/injection, schedule: Q01DX009 (ip), vehicle: saline 106 % of control | dose: 3.12 mg/kg/injection, schedule: Q01DX009 (ip), vehicle: suspension in saline 116 % of control | dose: 6.25 mg/kg/injection, schedule: Q01DX009 (ip), vehicle: saline 112 % of control | dose: 12.5 mg/kg/injection, schedule: Q01DX009 (ip), vehicle: saline 117 % of control

C=CCNC(=S)N\N=C/C(/C=C/c1ccccc1)=N\NC(=S)NCC=C
inactive: dose: 100.0 mg/kg/injection, schedule: Q04DX002 (ip), vehicle: Klucel (hydroxypropylcellulose) (HPC) 103 % of control | dose: 200.0 mg/kg/injection, schedule: Q04DX002 (ip), vehicle: Klucel (hydroxypropylcellulose) (HPC) 91 % of control | dose: 400.0 mg/kg/injection, schedule: Q04DX002 (ip), vehicle: Klucel (hydroxypropylcellulose) (HPC) 91 % of control

CCOP(O)(=S)OCC.[Ce]
inactive: dose: 100.0 mg/kg/injection, schedule: Q04DX003 (ip), vehicle: Klucel (hydroxypropylcellulose) (HPC) 99 % of control | dose: 200.0 mg/kg/injection, schedule: Q04DX003 (ip), vehicle: Klucel (hydroxypropylcellulose) (HPC) 100 % of control | dose: 400.0 mg/kg/injection, schedule: Q04DX003 (ip), vehicle: Klucel (hydroxypropylcellulose) (HPC) 93 % of control

Cn1c(=O)c2[nH]cnc2n(C)c1=O (tested in a mixture with another compound)
inactive: [3] 104 % of control | [4] 95 % of control | [5] 104 % of control

NNC(=O)C1CCN1C(c1ccccc1)c1ccccc1 (centres undefined)
inactive: [6] 106 % of control | [7] 102 % of control | [8] 102 % of control | [9] 95 % of control

CC1(C)CC(OC(=O)Oc2c3ccccc3c3ccc4cccc5ccc2c3c54)CC(C)(C)N1O
inactive: [3] 97 % of control | [4] 97 % of control | [5] 103 % of control

CC1SC2(C(=O)Nc3ccccc32)N(c2ccc(O)cc2)C1=O (centres undefined)
inactive: dose: 60.0 mg/kg/injection, schedule: Q01DX005 (ip), vehicle: Klucel (hydroxypropylcellulose) (HPC) 91 % of control | dose: 120.0 mg/kg/injection, schedule: Q01DX005 (ip), vehicle: Klucel (hydroxypropylcellulose) (HPC) 100 % of control | dose: 240.0 mg/kg/injection, schedule: Q01DX005 (ip), vehicle: Klucel (hydroxypropylcellulose) (HPC) 94 % of control

CCOc1ccc(-n2c(=O)c(N=Nc3ccc(OC)cc3)c(O)n(-c3ccccc3Cl)c2=S)cc1
inactive: dose: 50.0 mg/kg/injection, schedule: Q01DX001 (ip), vehicle: Klucel (hydroxypropylcellulose) (HPC) 97 % of control | dose: 100.0 mg/kg/injection, schedule: Q01DX001 (ip), vehicle: Klucel (hydroxypropylcellulose) (HPC) 94 % of control | dose: 200.0 mg/kg/injection, schedule: Q01DX001 (ip), vehicle: Klucel (hydroxypropylcellulose) (HPC) 94 % of control

c1cc[c]([Sn]([O][Sn]([c]2ccccc2)([c]2ccccc2)[c]2ccccc2)([c]2ccccc2)[c]2ccccc2)cc1
inactive: dose: 0.38 mg/kg/injection, schedule: Q04DX003 (ip), vehicle: saline 110 % of control | dose: 0.75 mg/kg/injection, schedule: Q04DX003 (ip), vehicle: saline 113 % of control | dose: 1.5 mg/kg/injection, schedule: Q04DX003 (ip), vehicle: saline 98 % of control | dose: 3.13 mg/kg/injection, schedule: Q04DX003 (ip), vehicle: Klucel (hydroxypropylcellulose) (HPC) 90 % of control | dose: 6.25 mg/kg/injection, schedule: Q04DX003 (ip), vehicle: saline with Tween-80 105 % of control

Cc1ccc(S(=O)(=O)Oc2ccc3oc4cccc(NCCN(C)C)c4c(=O)c3c2)cc1
inactive: [1] 95 % of control | [2] 97 % of control | dose: 200.0 mg/kg/injection, schedule: Q01DX005 (ip), vehicle: saline with Tween-80 93 % of control

S=C1CC(N2CCCC2)=Nc2ccccc2N1
inactive: dose: 50.0 mg/kg/injection, schedule: Q01DX005 (ip), vehicle: Klucel (hydroxypropylcellulose) (HPC) 100 % of control | dose: 100.0 mg/kg/injection, schedule: Q01DX005 (ip), vehicle: Klucel (hydroxypropylcellulose) (HPC) 90 % of control | dose: 200.0 mg/kg/injection, schedule: Q01DX005 (ip), vehicle: Klucel (hydroxypropylcellulose) (HPC) 95 % of control

CC1(Cl)CC2OC3(Br)C=CC(C)(O)C2(CC1Br)C3(C)C (centres undefined)
inactive: [6] 101 % of control | [7] 100 % of control | [8] 100 % of control | [9] 101 % of control
